Test results taken from patent US20190284168A1, “PYRAZOLE DERIVATIES AS SGC STIMULATORS” (IRONWOOD PHARMACEUTICALS, INC., priority 2014, published 2019).

Target: T1, soluble guanylate cyclase (sGC) (Homo sapiens, UniProt Q02108+Q02153)
T1 construct: endogenously expressing soluble guanylate cyclase (sGC); endogenous in cells; host or cells: HEK293
T1 sequence (Q02153 1-619): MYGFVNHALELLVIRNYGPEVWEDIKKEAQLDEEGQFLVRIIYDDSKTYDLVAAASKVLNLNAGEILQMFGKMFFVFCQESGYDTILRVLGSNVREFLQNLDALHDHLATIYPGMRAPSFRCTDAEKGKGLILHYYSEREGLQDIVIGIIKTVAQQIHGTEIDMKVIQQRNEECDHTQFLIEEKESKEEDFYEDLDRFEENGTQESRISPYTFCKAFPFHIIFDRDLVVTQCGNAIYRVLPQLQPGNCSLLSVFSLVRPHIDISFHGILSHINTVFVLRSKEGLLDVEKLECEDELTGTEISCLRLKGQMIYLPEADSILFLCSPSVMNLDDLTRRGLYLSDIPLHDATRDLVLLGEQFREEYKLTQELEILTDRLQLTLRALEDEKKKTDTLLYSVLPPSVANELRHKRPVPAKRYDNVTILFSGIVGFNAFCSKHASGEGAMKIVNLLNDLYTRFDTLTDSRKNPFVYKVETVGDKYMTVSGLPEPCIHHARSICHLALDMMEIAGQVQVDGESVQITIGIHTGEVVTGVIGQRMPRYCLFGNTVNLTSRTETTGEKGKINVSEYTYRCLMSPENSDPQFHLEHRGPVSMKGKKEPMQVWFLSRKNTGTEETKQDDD
T1 sequence (Q02108 1-690): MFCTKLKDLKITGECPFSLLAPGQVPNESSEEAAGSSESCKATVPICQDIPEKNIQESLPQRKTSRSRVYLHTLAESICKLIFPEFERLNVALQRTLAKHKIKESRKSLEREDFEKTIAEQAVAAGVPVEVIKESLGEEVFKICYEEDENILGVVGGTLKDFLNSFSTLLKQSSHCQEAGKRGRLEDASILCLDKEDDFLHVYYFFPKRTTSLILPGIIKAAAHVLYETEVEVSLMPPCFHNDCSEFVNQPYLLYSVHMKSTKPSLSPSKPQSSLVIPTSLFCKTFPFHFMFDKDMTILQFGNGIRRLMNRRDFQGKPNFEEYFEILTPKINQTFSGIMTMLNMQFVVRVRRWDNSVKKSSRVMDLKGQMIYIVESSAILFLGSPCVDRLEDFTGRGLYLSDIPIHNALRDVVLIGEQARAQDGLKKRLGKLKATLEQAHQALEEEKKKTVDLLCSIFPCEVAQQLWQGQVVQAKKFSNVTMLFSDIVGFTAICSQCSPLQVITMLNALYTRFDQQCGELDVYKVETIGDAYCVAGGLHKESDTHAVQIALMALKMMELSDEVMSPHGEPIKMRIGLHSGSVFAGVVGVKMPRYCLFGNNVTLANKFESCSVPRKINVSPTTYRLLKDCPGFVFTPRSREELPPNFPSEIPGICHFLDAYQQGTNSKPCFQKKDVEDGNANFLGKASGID
Assay: sGC-HEK-cGMP assay with LC/MS detection
Assay type: cell-based
Settings: HEK293 whole cells, LC/MS detection of cGMP, 10 μM DETA-NONOate; 50% of high control response (30 μM Compound Y); read-out: Absolute EC50 (nM)- binned (~)

SMILES | EC50
CC(=O)c1cc(-c2ncc(F)c(N[C@@H](CO)C(N)=O)n2)nn1Cc1ccccc1F [Compound 194, (S)-2-((2-(5-acetyl-1-(2-fluorobenzyl)-1H-pyrazol-3-yl)-5-fluoropyrimidin-4-yl)amino)-3-hydroxypropanamide] | > 1000 nM
CC(=O)c1cc(-c2ncc(F)c(NC3CCCCC3C(=O)O)n2)nn1Cc1ccccc1F (stereo not drawn) [Compound 123] | 100 to 1000 nM
CNc1cc(-c2ncc(F)c(O)n2)nn1Cc1ccccc1F [Compound 1] | > 1000 nM
CC1(C#N)C(=O)Nc2nc(-c3cc(-c4ccon4)n(Cc4ccccc4F)n3)nc(N)c21 (stereo not drawn) [Compound 29] | < 100 nM
CC(=O)c1cc(-c2ncc(F)c(NCC(O)(C(N)=O)C(F)(F)F)n2)nn1Cc1ccccc1F (stereo not drawn) [Compound 85] | 100 to 1000 nM
Fc1ccccc1Cn1nc(-c2ncc(F)c(Nc3nnc(C(F)(F)F)[nH]3)n2)cc1-c1ccon1 [Compound 12] | > 30000 nM
CC(=O)c1cc(-c2ncc(F)c(NCC(O)CO)n2)nn1Cc1ccccc1F (stereo not drawn) [Compound 180] | 100 to 1000 nM
CC(=O)c1cc(-c2ncc(F)c(N3CCCC3)n2)nn1Cc1ccccc1F [Compound 92] | > 1000 nM
CC(=O)c1cc(-c2ncc(F)c(N3CCC(C)(C(=O)O)CC3)n2)nn1Cc1ccccc1F [Compound 181] | 100 to 1000 nM
CC(=O)c1cc(-c2ncc(F)c(N3CCN(S(C)(=O)=O)CC3)n2)nn1Cc1ccccc1F [Compound 120] | > 30000 nM
CC(=O)c1cc(-c2ncc(F)c(N[C@@H]3CCCC[C@H]3C(=O)O)n2)nn1Cc1ccccc1F [Compound 137, (1R,2R)-2-((2-(5-acetyl-1-(2-fluorobenzyl)-1H-pyrazol-3-yl)-5-fluoropyrimidin-4-yl)amino)cyclohex anecarboxylic acid] | 100 to 1000 nM
COC1CCN(c2nc(-c3cc(C(C)=O)n(Cc4ccccc4F)n3)ncc2F)C1 (stereo not drawn) [Compound 80] | 100 to 1000 nM
CN(C)c1cc(-c2ncc(F)c(O)n2)nn1Cc1ccccc1F [Compound 81] | > 1000 nM
Nc1nnc(C(O)(CNc2nc(-c3cc(-c4ccon4)n(Cc4ccccc4F)n3)ncc2F)C(F)(F)F)o1 (stereo not drawn) [Compound 42] | 100 to 1000 nM
CC(=O)c1cc(-c2ncc(F)c(NCCO)n2)nn1Cc1ccccc1F [Compound 125] | > 1000 nM
CCC(C)(N)CNc1nc(-c2cc(C(C)=O)n(Cc3ccccc3F)n2)ncc1F (stereo not drawn) [Compound 129, 1-(3-(4-((2-amino-2-methylbutyl)amino)-5-fluoropyrimidin-2-yl)-1-(2-fluorobenzyl)-1H-pyrazol-5-yl)ethanone] | > 1000 nM
Oc1cccc(F)c1Cn1nc(-c2ncc(F)c(NCC(O)(C(F)(F)F)C(F)(F)F)n2)cc1-c1ccon1 [Compound 183] | > 1000 nM
CC(=O)c1cc(-c2ncc(F)c(N3CCOCC3)n2)nn1Cc1ccccc1F [Compound 95] | 100 to 1000 nM
Oc1ccc(Cn2nc(-c3ncc(F)c(NCC(O)(C(F)(F)F)C(F)(F)F)n3)cc2-c2ccon2)c(F)c1 [Compound 184] | > 1000 nM
CC(=O)c1cc(-c2ncc(F)c(N3CC(F)(F)C3)n2)nn1Cc1ccccc1F [Compound 114] | > 1000 nM
OC(CNc1nc(-c2cc(-c3ncco3)n(Cc3ccccc3F)n2)ncc1F)(C(F)(F)F)C(F)(F)F [Compound 103] | 100 to 1000 nM
CC(=O)c1cc(-c2ncc(F)c(N(C)C[C@@H](C(=O)O)C(C)C)n2)nn1Cc1ccccc1F [Compound 73] | > 1000 nM
O=c1n(-c2nc(-c3cc(-c4ccon4)n(Cc4ccccc4F)n3)ncc2F)nc2n1CCNC2 [Compound 43] | > 1000 nM
CCN(CC)c1nc(-c2cc(-c3ncco3)n(Cc3ccccc3F)n2)ncc1F [Compound 140] | > 1000 nM
CS(=O)(=O)c1cc(-c2ncc(F)c(O)n2)nn1Cc1ccccc1F [Compound 196] | > 30000 nM
CC(=O)c1cc(-c2ncc(F)c(N(C)CC3(C(N)=O)CC3)n2)nn1Cc1ccccc1F [Compound 99] | 100 to 1000 nM

The next lines start with the values.

EC50 | SMILES
> 1000 nM | O=C(Nc1nc(-c2cc(-c3ccon3)n(Cc3ccccc3F)n2)ncc1F)OCCN1CCOCC1 [Compound 158, 2-morpholinoethyl (5-fluoro-2-(1-(2-fluorobenzyl)-5-(isoxazol-3-yl)-1H-pyrazol-3-yl)pyrimidin-4-yl)carbamate]
> 1000 nM | OCC(O)CNc1cnc(-c2cc(-c3ccon3)n(Cc3ccccc3F)n2)nc1 (stereo not drawn) [Compound 21]
> 1000 nM | CCC(C)(NC(=O)OCc1ccccc1)C(=O)Nc1ccnc(-c2cc(-c3ccon3)n(Cc3ccccc3F)n2)n1 (stereo not drawn) [Compound 46]
> 1000 nM | O=C(CN1CCCCC1)OCCNc1nc(-c2cc(-c3ccon3)n(Cc3ccccc3F)n2)ncc1F [Compound 200]
100 to 1000 nM | CCC(N)(CC)CNc1nc(-c2cc(-c3ccon3)n(Cc3ccccc3F)n2)ncc1F [Compound 153, 2-ethyl-N1-(5-fluoro-2-(1-(2-fluorobenzyl)-5-(isoxazol-3-yl)-1H-pyrazol-3-yl)pyrimidin-4-yl)butane-1,2-diamine]
100 to 1000 nM | CCCC(C)(N)CNc1nc(-c2cc(-c3ccon3)n(Cc3ccccc3F)n2)ncc1F (stereo not drawn) [Compound 155, N1-(5-fluoro-2-(1-(2-fluorobenzyl)-5-(isoxazol-3-yl)-1H-pyrazol-3-yl)pyrimidin-4-yl)-2-methylpentane-1,2-diamine]
100 to 1000 nM | CC(O)(C(N)=O)C(=O)Nc1ccnc(-c2cc(-c3ccon3)n(Cc3ccccc3F)n2)n1 (stereo not drawn) [Compound 36]
100 to 1000 nM | O=C(Cc1cc(=O)o[nH]1)Nc1ccnc(-c2cc(-c3ccon3)n(Cc3ccccc3F)n2)n1 [Compound 75]
< 100 nM | CCC[C@H](CO)Nc1nc(-c2cc(-c3ccon3)n(Cc3ccccc3F)n2)ncc1F [Compound 152, (R)-2-((5-fluoro-2-(1-(2-fluorobenzyl)-5-(isoxazol-3-yl)-1H-pyrazol-3-yl)pyrimidin-4-yl)amino)pentan-1-ol]
< 100 nM | C[C@@](CNc1nc(-c2cc(-c3ccon3)n(Cc3ccccc3F)n2)ncc1F)(N[C@@H](CO)c1ccccc1)C(F)(F)F [Compound 107]
< 100 nM | COC(=O)CCNc1nc(-c2cc(-c3ccon3)n(Cc3ccccc3F)n2)ncc1F [Compound 163, methyl 3-((5-fluoro-2-(1-(2-fluorobenzyl)-5-(isoxazol-3-yl)-1H-pyrazol-3-yl)pyrimidin-4-yl)amino)propanoate]
< 100 nM | CC(C)C[C@H](CO)Nc1nc(-c2cc(-c3ccon3)n(Cc3ccccc3F)n2)ncc1F [Compound 149, (R)-2-((5-fluoro-2-(1-(2-fluorobenzyl)-5-(isoxazol-3-yl)-1H-pyrazol-3-yl)pyrimidin-4-yl)amino)-4-m ethylpentan-1-ol]
> 1000 nM | O=C(NNC(=O)C(F)(F)F)Nc1nc(-c2cc(-c3ccon3)n(Cc3ccccc3F)n2)ncc1F [Compound 13]
100 to 1000 nM | CCC(C)(N)CNc1nc(-c2cc(-c3ccon3)n(Cc3ccccc3F)n2)ncc1F (stereo not drawn) [Compound 55]
> 30000 nM | Nc1ccc(CNc2nc(-c3cc(-c4ccon4)n(Cc4ccccc4F)n3)ncc2F)cc1O [Compound 159, 2-amino-5-(((5-fluoro-2-(1-(2-fluorobenzyl)-5-(isoxazol-3-yl)-1H-pyrazol-3-yl)pyrimidin-4-yl)amino)methyl)phenol]
> 1000 nM | CC(C(N)=O)C(=O)Nc1ccnc(-c2cc(-c3ccon3)n(Cc3ccccc3F)n2)n1 (stereo not drawn) [Compound 35]
